Laboratory results published in US20240132513A1, “BENZAZEPINE DERIVATIVES, COMPOSITIONS, AND METHODS FOR TREATING COGNITIVE IMPAIRMENT” (AGENEBIO, INC., priority 2022, published 2024).
Like-named read-outs stand apart in the source and are kept apart here.

Target: α5β3γ2 GABAA R (Homo sapiens, UniProt P18507+P31644)
Experiment: Binding activity on GABAA R: inhibition of [3H]Ro15-1788 binding, α5 containing receptor
Method: Tissue culture and Membrane Preparation: The binding was performed on Ltk cells stably expressing GABAA R: […], α2β3γ2, α3β3γ2 and α5β3γ2 (provided by Merck Co., NJ, USA). Cells were seeded in 100 mm culture plates in DMEM/F12 medium containing 10% serum and antibiotics in 5% CO2 and allowed to grow for 1-2 days. GABAAR expression was then induced by dexamethasone as follows: 0.5 μM for 1 day for α5 containing and 2 μM for 3 days for α1, α2 and α3 containing GABAARs. After induction, cells were collected by scraping into Dulbecco's Phosphate buffered saline (DPBS, pH 7.4, Invitrogen, Carlsbad, CA, USA) and centrifuged at 150×g for 10 min. The pellet was washed twice by re-suspension and centrifugation. The cell pellets from at least 5 different preps were combined, suspended in the binding assay buffer (50 mM KH2PO4; 1 mM EDTA; 0.2 M KCl, pH 7.4) and membranes prepared by sonication (3-5 times, 30 sec) using Branson Sonifier 150 (G. Heinmann, Germany). Protein content was determined using BCA assay (Bio-Rad Labs, Reinach, Switzerland) with Bovine Serum Albumin (Sigma Aldrich, St. Louis, MO, USA) as the standard. Aliquots were prepared and stored at −20° C. for further use in binding assays.
Ligand Binding: Saturation binding curves were obtained by incubating membranes with increasing concentrations (0.01-8 nM) of [^3H]Rol5-1788 (Flumazepil, 75-85 Ci/mmol, PerkinElmer, MA, USA), with nonspecific binding measured in the presence of 10 μM diazepam.
All binding assays were performed for 1 h at 4° C. in assay buffer. The total assay volume was 0.5 ml containing 0.2 mg/ml protein for α5 and 0.4 mg/ml for α1, α2, and α3 containing GABAAR membranes. Incubations were terminated by filtration through GF/B filters using a 24-Cell Harvestor (Brandel, Gaithersburg, MD, USA) followed by 3 washes with ice-cold assay buffer. Filters were transferred to scintillation vials, 5 ml scintillation liquid added, vortex-mixed and kept in dark. Next day, radioactivity was obtained using a scintillation counter (Beckman Coulter, Brea, CA, USA). All assays were performed in triplicate.
Data Analyses: Saturation and inhibition curves were obtained using GraphPad Prism software (GraphPad Software, Inc., CA, USA).

[1] = ranges of the column heads, [3H]Ro15-1788, Ltk cell membranes

α5β3γ2 GABAA R, sequence (P31644 32-462): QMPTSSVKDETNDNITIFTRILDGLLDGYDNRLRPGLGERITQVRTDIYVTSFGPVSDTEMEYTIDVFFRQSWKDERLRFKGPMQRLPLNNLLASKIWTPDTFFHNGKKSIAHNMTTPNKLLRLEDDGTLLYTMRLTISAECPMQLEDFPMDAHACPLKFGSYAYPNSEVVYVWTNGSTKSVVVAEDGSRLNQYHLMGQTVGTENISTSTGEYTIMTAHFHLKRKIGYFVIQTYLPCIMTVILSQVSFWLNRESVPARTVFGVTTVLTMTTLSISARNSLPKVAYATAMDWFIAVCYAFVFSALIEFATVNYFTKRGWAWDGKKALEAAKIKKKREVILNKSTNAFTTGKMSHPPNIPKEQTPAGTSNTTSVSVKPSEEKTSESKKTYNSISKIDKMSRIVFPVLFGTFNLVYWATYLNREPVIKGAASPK
α5β3γ2 GABAA R, sequence (P28472 26-473 partner): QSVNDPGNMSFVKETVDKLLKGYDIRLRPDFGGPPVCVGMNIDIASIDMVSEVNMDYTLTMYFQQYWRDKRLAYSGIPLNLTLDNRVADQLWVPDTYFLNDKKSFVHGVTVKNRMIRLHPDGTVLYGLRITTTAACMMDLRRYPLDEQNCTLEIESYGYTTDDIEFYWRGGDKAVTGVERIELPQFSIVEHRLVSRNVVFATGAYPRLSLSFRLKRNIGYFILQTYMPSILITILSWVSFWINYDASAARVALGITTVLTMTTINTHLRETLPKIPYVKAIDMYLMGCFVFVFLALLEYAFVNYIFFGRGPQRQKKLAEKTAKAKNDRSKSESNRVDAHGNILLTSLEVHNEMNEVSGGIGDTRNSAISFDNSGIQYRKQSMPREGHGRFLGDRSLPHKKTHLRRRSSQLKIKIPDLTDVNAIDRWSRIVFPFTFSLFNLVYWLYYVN
α5β3γ2 GABAA R, sequence (P18507 40-475): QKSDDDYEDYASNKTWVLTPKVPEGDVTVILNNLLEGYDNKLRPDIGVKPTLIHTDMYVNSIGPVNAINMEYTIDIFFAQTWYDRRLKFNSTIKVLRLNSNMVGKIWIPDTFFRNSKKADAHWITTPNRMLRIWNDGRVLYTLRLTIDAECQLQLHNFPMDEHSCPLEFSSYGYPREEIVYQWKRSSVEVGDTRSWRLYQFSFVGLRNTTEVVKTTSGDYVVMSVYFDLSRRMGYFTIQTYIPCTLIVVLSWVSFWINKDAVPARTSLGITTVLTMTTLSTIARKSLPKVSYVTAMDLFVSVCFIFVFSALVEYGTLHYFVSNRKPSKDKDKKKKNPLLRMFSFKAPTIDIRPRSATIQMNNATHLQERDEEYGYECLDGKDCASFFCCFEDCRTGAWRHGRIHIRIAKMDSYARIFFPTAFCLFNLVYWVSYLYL

Compound	Ki [1] [nM]	Ki [nM]
Cn1cc2c(n1)-c1cc(Cl)ccc1-n1cnc(-c3noc(CCN4CCCC4=O)n3)c1C2 [Compound 383]	< 100	–
COc1ccc2c(c1)-c1nn(C)cc1Cc1c(-c3noc(C4(O)CCCC4)n3)ncn1-2 [Compound 384]	–	< 100
COCCc1nc(-c2ncn3c2Cc2cn(C)nc2-c2cc(Cl)ccc2-3)no1 [Compound 387]	–	< 100
Cn1cc(-c2ncn3c2Cc2cn[nH]c2-c2cc(Cl)ccc2-3)cn1 [Compound 62]	–	100 to 1000
Cn1cc2c(n1)-c1cc(Cl)ccc1-n1cnc(-c3ncco3)c1C2 [Compound 166]	–	< 100
CC(C)Cc1noc(-c2ncn3c2Cc2cnoc2-c2cc(Cl)ccc2-3)n1 [Compound 66]	> 1000	–
Cc1noc(-c2ncn3c2Cc2cnn(C)c2-c2cc(Cl)ccc2-3)n1 [Compound 3]	–	< 100
COc1ccc2c(c1)-c1[nH]ncc1Cc1c(-c3ncco3)ncn1-2 [Compound 71]	–	< 100
Clc1ccc2c(c1)-c1c(cnn1Cc1ccccc1)Cc1c(C3=N[C@@H](c4ccccc4)CO3)ncn1-2 [Compound 6]	> 1000	–
COc1cccc(Cn2cc(-c3ncn4c3Cc3cn(CC5CCCO5)nc3-c3cc(Cl)ccc3-4)cn2)n1 (centres unmarked) [Compound 337]	–	< 100
CN1C(=O)Cn2c(C3=N[C@H](c4ccccc4)CO3)cnc2-c2ccc(Cl)cc21 [Compound 29]	> 1000	–
COc1ccc2c(c1)-c1c(cnn1C)Cc1c(-c3nc(C(C)(C)C)no3)ncn1-2 [Compound 19]	> 1000	–
COc1ccc2c(c1)-c1[nH]ncc1Cc1c(-c3cnn(Cc4ccccc4)c3)ncn1-2 [Compound 72]	–	< 100
COc1ccc2c(c1)-c1nn(C)cc1Cc1c(-c3noc(CN4CCOCC4)n3)ncn1-2 [Compound 348]	–	< 100
COc1ccc2c(c1)-c1nn(C)cc1Cc1c(-c3nnc(C4COCCO4)o3)ncn1-2 (centres unmarked) [Compound 325]	–	< 100
CC(C)c1noc(-c2cnc3n2CC(=O)Nc2cc(Cl)ccc2-3)n1 [Compound 27]	> 1000	–
CCC(C)(OC)c1nc(-c2ncn3c2Cc2cn(C)nc2-c2cc(OC)ccc2-3)no1 (centres unmarked) [Compound 353]	< 100	–
COc1ccc2c(c1)-c1[nH]ncc1Cc1c(C3=N[C@H](c4ccc(Cl)cc4)CO3)ncn1-2 [Compound 24]	–	< 100
COc1ccc2c(c1)-c1nn(CCOC(C)(C)C)cc1Cc1c(-c3noc(C(C)(C)OC)n3)ncn1-2 [Compound 333]	–	< 100
CCn1cc2c(n1)-c1cc(OC)ccc1-n1cnc(-c3nc(CN(C)C)no3)c1C2 [Compound 241]	–	< 100
CCn1cc2c(n1)-c1cc(Cl)ccc1-n1cnc(-c3noc(CN4CCCC4)n3)c1C2 [Compound 350]	–	< 100
COCC(C)(C)c1nc(-c2ncn3c2Cc2cn(C)nc2-c2cc(OC)ccc2-3)no1 [Compound 377]	–	< 100
Cc1noc(-c2cnc3n2CC(=O)Nc2cc(Cl)ccc2-3)n1 [Compound 26]	> 1000	–

Compound	Ki [1] [nM]	Ki [nM]
COCCOCc1coc(-c2ncn3c2Cc2cn(C)nc2-c2cc(OC)ccc2-3)n1 [Compound 272]	–	< 100
Cn1cc2c(n1)-c1cc(Cl)ccc1-n1cnc(C3=NC4(COC4)CO3)c1C2 [Compound 182]	–	< 100
COc1ccc2c(c1)-c1nn(C)cc1Cc1c(-c3nnc(COCC(F)(F)F)o3)ncn1-2 [Compound 334]	–	< 100
CC#Cc1ncn2c1Cc1cn[nH]c1-c1cc(Cl)ccc1-2 [Compound 65]	–	< 100
CC(C)n1cc2c(n1)-c1cc(Cl)ccc1-n1cnc(-c3cnn(Cc4ccccc4)c3)c1C2 [Compound 165]	–	100 to 1000
COc1ccc2c(c1)-c1[nH]ncc1Cc1c(-c3cnn(C)c3)ncn1-2 [Compound 82]	–	100 to 1000
COc1ccc(Cn2ncc3c2-c2cc(OC)ccc2-n2cnc(C#Cc4ccc(OC)nc4)c2C3)cc1 [Compound 36]	–	100 to 1000
COc1ccc2c(c1)-c1nn(Cc3ccccc3F)cc1Cc1c(-c3cnn(Cc4ccccc4)c3)ncn1-2 [Compound 77]	–	< 100
COc1ccc2c(c1)-c1nn(C)cc1Cc1c(-c3nc(CN4CCOCC4)no3)ncn1-2 [Compound 328]	–	< 100
COc1ccc2c(c1)-c1nn(C)cc1Cc1c(-c3nc(CN4CCOCC4)co3)ncn1-2 [Compound 271]	–	< 100
COCc1noc(-c2ncn3c2Cc2cn(CC4COC4)nc2-c2cc(OC)ccc2-3)n1 [Compound 298]	< 100	–
COc1ccc2c(c1)-c1oncc1Cc1c(C3=N[C@H](c4ccccc4)CO3)ncn1-2 [Compound 49]	> 1000	–
CC#Cc1ncn2c1Cc1cn[nH]c1-c1cc(OC)ccc1-2 [Compound 83]	< 100	–
COc1ccc2c(c1)-c1nn(C)cc1Cc1c(-c3noc(CN4CCCC4=O)n3)ncn1-2 [Compound 368]	–	100 to 1000
COc1ccc2c(c1)-c1nn(Cc3ccccc3F)cc1Cc1c(-c3nc(C(C)C)no3)ncn1-2 [Compound 43]	–	< 100
COc1ccc2c(c1)-c1c(cnn1Cc1ccccc1)Cc1c(-c3nc(C(C)C)no3)ncn1-2 [Compound 8]	–	100 to 1000
CCOC(=O)c1cnc2n1CC(=O)N(C)c1cc(Cl)ccc1-2 [Compound 28]	–	> 1000
CC(C)(C)C#Cc1ncn2c1Cc1cn(Cc3ccccc3)nc1-c1cc(Cl)ccc1-2 [Compound 92]	–	< 100
COc1ccc2c(c1)-c1nn(Cc3ccccc3)cc1Cc1c(-c3nc(C(C)(C)C)no3)ncn1-2 [Compound 17]	–	< 100
COc1ccc2c(c1)-c1nn(C)cc1Cc1c(-c3nc(COC4CCOC4)no3)ncn1-2 (centres unmarked) [Compound 316]	< 100	–
COc1ccc2c(c1)-c1[nH]ncc1Cc1c(-c3noc(C(C)(C)C)n3)ncn1-2 [Compound 89]	< 100	–
COCc1noc(-c2ncn3c2Cc2cn(CC4CCOC4)nc2-c2cc(Cl)ccc2-3)n1 (centres unmarked) [Compound 351]	–	< 100
COc1ccc2c(c1)-c1nn(CC3CCOC3)cc1Cc1c(-c3noc(C(C)(C)OC)n3)ncn1-2 (centres unmarked) [Compound 374]	–	< 100

Compound	Ki [1] [nM]	Ki [nM]
COc1ccc2c(c1)-c1nn(C)cc1Cc1c(-c3nnc(C4CCOC4)o3)ncn1-2 (centres unmarked) [Compound 291]	–	100 to 1000
Cc1noc(-c2ncn3c2Cc2cnn(Cc4ccccc4)c2-c2cc(Cl)ccc2-3)n1 [Compound 1]	–	< 100
Cc1ccc(-c2noc(C)c2COc2ccc(C(=O)NC3CCOCC3)nn2)cn1 [Compound 238]	< 100	–
COc1ccc2c(c1)-c1n[nH]cc1Cc1c(-c3noc(C4(F)CC4)n3)ncn1-2 [Compound 191]	–	< 100
Cn1cc2c(n1)-c1cc(Cl)ccc1-n1cnc(-c3noc(CN4CCCC4=O)n3)c1C2 [Compound 382]	–	< 100
Cn1cc2c(n1)-c1cc(Cl)ccc1-n1cnc(-c3nc(CN4CCCC4=O)co3)c1C2 [Compound 364]	–	< 100
COc1ccc2c(c1)-c1[nH]ncc1Cc1c(C#Cc3ccc(OC)nc3)ncn1-2 [Compound 38]	–	< 100
COc1ccc2c(c1)-c1nn(C)cc1Cc1c(-c3noc(Cn4cccc4)n3)ncn1-2 [Compound 360]	–	< 100
COc1ccc2c(c1)-c1nn(C)cc1Cc1c(-c3noc(C4(C)COC4)n3)ncn1-2 [Compound 317]	–	< 100
COc1ccc2c(c1)-c1nn(C)cc1Cc1c(-c3noc(CN4CCCC4)n3)ncn1-2 [Compound 347]	–	< 100
Cn1cc2c(n1)-c1cc(Cl)ccc1-n1cnc(-c3nc(CN4CCCC4)co3)c1C2 [Compound 345]	–	< 100
Clc1ccc2c(c1)-c1nn(CC3CCOC3)cc1Cc1c(-c3cnn(Cc4ccccc4)c3)ncn1-2 (centres unmarked) [Compound 229]	< 100	–
CCn1cc2c(n1)-c1cc(OC)ccc1-n1cnc(-c3nc(C4CC4)no3)c1C2 [Compound 152]	–	< 100
COc1ccc2c(c1)-c1nn(C)cc1Cc1c(-c3nc(CN4CCCC4)co3)ncn1-2 [Compound 270]	–	100 to 1000
CC(C)c1noc(-c2cnc3n2Cc2nncn2-c2cc(Cl)ccc2-3)n1 [Compound 58]	> 1000	–
CC(C)c1noc(-c2cnc3n2CC(=O)N(C)c2cc(Cl)ccc2-3)n1 [Compound 31]	–	> 1000
COc1ccc2c(c1)-c1nn(C)cc1Cc1c(-c3noc(C4(OC(C)C)CC4)n3)ncn1-2 [Compound 370]	–	< 100
Cn1ncc2c1-c1cc(Cl)ccc1-n1cnc(-c3cnn(Cc4ccccc4)c3)c1C2 [Compound 164]	–	< 100
COc1ccc2c(c1)-c1nn(C)cc1Cc1c(-c3noc(C(C)(C)CO)n3)ncn1-2 [Compound 376]	–	< 100
COC(C)(C)c1noc(-c2ncn3c2Cc2cn(CC4CCOC4)nc2-c2cc(Cl)ccc2-3)n1 (centres unmarked) [Compound 367]	–	< 100
Clc1ccc2c(c1)-c1nn(CC3CCCO3)cc1Cc1c(-c3noc(C4CCOCC4)n3)ncn1-2 (centres unmarked) [Compound 362]	–	< 100
Cc1noc(-c2ncn3c2Cc2cnoc2-c2cc(Cl)ccc2-3)n1 [Compound 69]	> 1000	–
